SMILES strings stand for the structures.

Common to all, as to type: cell-based
For test [1], the system named is H1975. Briefly: Cancer cell growth inhibition (CellTiter-Glo, 72 hours). Conditions: Homo sapiens, NCI-H1975, H1975 cells, read-out: GI50s (μM) H1975. The method, then: (§1) Seeding 3000 cells per well in a 96-well plate. After cell stabilization, treat the cells with compounds diluted in 0.5% DMSO at a ⅓ serial dilution and culture for 72 hours. Following treatment with CellTiter-Glo, luminescence is produced only in the presence of ATP, as luciferase degrades luciferin. Luminescence values were measured using Envision (PerkinElmer). Based on the measured luminescence values, the concentration of compounds causing cell death was calculated to determine the GI50 value.
(§2) The activity values were categorized into three levels • A: IC50<1 μM • B: 1 μM≤IC50<10 μM, • C: IC50≥10 μM
(In general: Cellular ATP, detected with luciferase, serves as a proxy for viable cell number.)

The test system of test [2] is H23. The test is described as above. Conditions: Homo sapiens, NCI-H23, H23 cells, read-out: GI50s (μM) H23. The method, then:
as §1, §2

The test system of test [3] is H358. Described as above. The note with it: Homo sapiens, NCI-H358, H358 cells, read-out: GI50s (μM) H358. The method, then:
as §1, §2

For test [4], the system named is HCT116. The description is as above. Conditions: Homo sapiens, HCT-116, HCT116 cells, read-out: GI50s (μM) HCT116. The method, then: as §1, §2
Test [5] has as its system MDA-MB-231. The test is described as above. Conditions: Homo sapiens, MDA-MB-231 cells, read-out: GI50s (μM) MDA-MB-231. The method, then: as §1, §2
The subject of test [6] is colo205. The description is as above. The note with it: Homo sapiens, COLO 205, colo205 cells, read-out: GI50s (μM) colo205. The method, then: as §1, §2
Test [7] addresses T1, Ba/F3 FLT3 (ITD) (Homo sapiens, UniProt P36888, cells depend on it, form not given).
T1 sequence (P36888 1-993): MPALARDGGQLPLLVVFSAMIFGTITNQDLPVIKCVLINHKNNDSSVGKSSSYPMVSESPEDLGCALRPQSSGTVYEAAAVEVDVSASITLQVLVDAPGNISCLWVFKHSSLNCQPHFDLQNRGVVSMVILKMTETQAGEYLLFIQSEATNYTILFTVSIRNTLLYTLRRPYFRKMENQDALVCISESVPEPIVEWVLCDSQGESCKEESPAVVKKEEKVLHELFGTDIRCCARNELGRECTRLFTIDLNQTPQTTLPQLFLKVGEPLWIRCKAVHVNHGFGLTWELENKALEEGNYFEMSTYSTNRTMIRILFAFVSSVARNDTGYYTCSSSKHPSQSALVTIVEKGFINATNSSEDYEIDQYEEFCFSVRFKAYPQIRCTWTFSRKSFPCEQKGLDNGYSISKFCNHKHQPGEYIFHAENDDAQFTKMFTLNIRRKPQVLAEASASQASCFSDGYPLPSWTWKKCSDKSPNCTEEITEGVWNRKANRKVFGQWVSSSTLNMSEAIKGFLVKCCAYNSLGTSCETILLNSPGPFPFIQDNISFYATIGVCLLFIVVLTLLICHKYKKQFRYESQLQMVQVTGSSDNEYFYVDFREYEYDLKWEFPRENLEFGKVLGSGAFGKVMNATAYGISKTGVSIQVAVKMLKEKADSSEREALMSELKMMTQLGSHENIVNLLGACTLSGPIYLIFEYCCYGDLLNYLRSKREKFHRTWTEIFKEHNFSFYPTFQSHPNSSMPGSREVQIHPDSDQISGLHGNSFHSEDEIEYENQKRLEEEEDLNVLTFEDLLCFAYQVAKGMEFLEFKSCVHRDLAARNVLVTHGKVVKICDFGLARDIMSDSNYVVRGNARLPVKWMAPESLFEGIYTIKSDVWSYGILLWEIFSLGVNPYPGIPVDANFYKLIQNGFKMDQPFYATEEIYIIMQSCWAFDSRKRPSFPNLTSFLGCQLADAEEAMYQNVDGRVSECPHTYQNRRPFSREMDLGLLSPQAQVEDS
Briefly: Ba/F3 cell growth inhibition (CellTiter-Glo, 72 hours). Conditions: read-out: Ba/F3 GI50s (μM) FLT3 (ITD). The method, then: (§3) Seeding 3000 cells per well in a 96-well plate. After cell stabilization, treat the cells with compounds diluted in […] at a ⅓ serial dilution and culture for 72 hours. Following treatment with CellTiter-Glo, luminescence is produced only in the presence of ATP, as luciferase degrades luciferin. Luminescence values were measured using Envision (PerkinElmer). Based on the measured luminescence values, the concentration of compounds causing cell death was calculated to determine the GI50 value.
(§4) The activity values were categorized into three levels. • A: IC50<1 μM • B: 1 μM≤IC50<10 μM, • C: IC50≥10 μM

In test [8] the test system is Ba/F3 parental. The description is as above. The note with it: Mus musculus, BaF3, Ba/F3 parental cells, read-out: Ba/F3 GI50s (μM) parental. The method, then: as §3, §4

Consider `O=C1CCCCCCOc2ccc(cc2)-c2ccc3cnc(nn23)Nc2ccc(cc2)N2CCN1CC2` [Example 24, (Z)-13-oxa-3-aza-2(7,2)-pyrrolo[2,1-f][1,2,4]triazina-5(1,4)-piperazina-1,4(1,4)-dibenzenacyclotridecaphan-6-one], for which the IC50 in test [1] is 1 to 10 µM; in test [2] it was 1 to 10 µM; in test [3] it was 1 to 10 µM; in test [4], 1 to 10 µM; in test [5] it was not below 10 µM; in test [6], 1 to 10 µM. Also, in test [8], the IC50 fell in the range of 1 to 10 µM. In test [7], the GI50 was 1 to 10 µM.

With `O=C1CCCCOc2ccc(cc2)-c2ccc3cnc(nn23)Nc2cnn(c2)C2CCN1CC2` [Example 25, (2^1Z,4^4E)-4^1H-11-oxa-3-aza-2(7,2)-pyrrolo[2,1-f][1,2,4]triazina-5(4,1)-piperidina-4(4,1)-pyrazola-1(1,4)-benzenacycloundecaphan-6-one], the IC50 in test [1] was not below 10 µM; in test [2], 1 to 10 µM; in test [3] it was not below 10 µM; in test [4] it was less than 1 µM; in test [5], not below 10 µM; in test [6], not below 10 µM. In addition, in test [8], the IC50 is not below 10 µM. Also, the GI50 in test [7] was less than 1 µM.

`O=C1CCCCOc2ccc(cc2)-c2ccc3cnc(nn23)Nc2cnn(c2)C2CCN(CCCN1)CC2` [Example 26, (2^1Z,4^4E)-4^1H-15-oxa-3,9-diaza-2(7,2)-pyrrolo[2,1-f1][1,2,4]triazina-5(4,1)-piperidina-4(4,1)-pyrazola-1(1,4)-benzenacyclopentadecaphan-10-one]: the IC50 in test [1] was less than 1 µM; in test [2], less than 1 µM; in test [3] it was less than 1 µM; in test [4], less than 1 µM; in test [5], not below 10 µM; in test [6], less than 1 µM. In addition, in test [8], the IC50 is not below 10 µM. The GI50 in test [7] is less than 1 µM.

As for `O=C1CCCCCCOc2ccc(cc2)-c2ccc3cnc(nn23)Nc2cnn(c2)C2CCN(CCCN1)CC2` [Example 27, (2^1Z,4^4E)-4^1H-17-oxa-3,9-diaza-2(7,2)-pyrrolo[2,1-f1][1,2,4]triazina-5(4,1)-piperidina-4(4,1)-pyrazola-1(1,4)-benzenacycloheptadecaphan-10-one], the IC50 was not below 10 µM in test [1]; 1 to 10 µM in test [2]; 1 to 10 µM in test [3]; not below 10 µM in test [4]; 1 to 10 µM in test [5]; not below 10 µM in test [6]. In addition, the IC50 in test [8] was 1 to 10 µM. Further, the GI50 in test [7] is less than 1 µM.

As to `O=C1COCCOc2ccc(cc2)-c2ccc3cnc(nn23)Nc2ccc(cc2)OCCCN1` [Example 28, (Z)-5,12,15-trioxa-3,9-diaza-2(7,2)-pyrrolo[2,1-f][1,2,4]triazina-1,4(1,4)-dibenzenacyclopentadecaphan-10-one], the IC50 in test [1] is 1 to 10 µM; in test [2], 1 to 10 µM; in test [3], 1 to 10 µM; in test [4], 1 to 10 µM; in test [5] it was not below 10 µM; in test [6], 1 to 10 µM. Moreover, the IC50 in test [8] is less than 1 µM. Further, the GI50 in test [7] was less than 1 µM.

On to `O=C1CCCCCCOc2ccc(cc2)-c2ccc3cnc(nn23)Nc2ccc(cc2)OCCCN1` [Example 29, (Z)-5,17-dioxa-3,9-diaza-2(7,2)-pyrrolo[2,1-f][1,2,4]triazina-1,4(1,4)-dibenzenacycloheptadecaphan-10-one], for which the IC50 is 1 to 10 µM in test [1]; 1 to 10 µM in test [2]; 1 to 10 µM in test [3]; 1 to 10 µM in test [4]; not below 10 µM in test [5]; 1 to 10 µM in test [6]. Also, in test [8], the IC50 was not below 10 µM. In test [7], the GI50 is less than 1 µM.

Regarding `c1cc2ccc1Nc1ncc3ccc(n3n1)-c1ccc(cc1)OCCNCCCO2` [Example 30, (Z)-5,12-dioxa-3,9-diaza-2(7,2)-pyrrolo[2,1-f][1,2,4]triazina-1,4(1,4)-dibenzenacyclododecaphane], the IC50 in test [1], in test [2], in test [3], in test [4], in test [5] and in test [6] was 1 to 10 µM throughout. Further, the IC50 in test [8] is not below 10 µM. Besides, in test [7], the GI50 was less than 1 µM.

For `COc1cc2ccc1Nc1ncc3ccc(n3n1)-c1ccc(cc1)OCCOCC(=O)NCCCO2` [Example 34, (Z)-42-methoxy-5,12,15-trioxa-3,9-diaza-2(7,2)-pyrrolo[2,1-f][1,2,4]triazina-1,4(1,4)-dibenzenacyclopentadecaphan-10-one], the IC50 in test [1] was not below 10 µM; in test [2] it was not below 10 µM; in test [3] it was not below 10 µM; in test [4], not below 10 µM; in test [5] it was 1 to 10 µM; in test [6], not below 10 µM. Moreover, the IC50 in test [8] was not below 10 µM. Also, in test [7], the GI50 was in the range of 1 to 10 µM.

On to `O=C1COCCOc2ccc(cc2)-c2ccc3cnc(nn23)Nc2cnn(c2)CCCN1` [Example 35, (2^1Z,4^4E)-4^1H-11,14-dioxa-3,8-diaza-2(7,2)-pyrrolo[2,1-f1][1,2,4]triazina-4(4,1)-pyrazola-1(1,4)-benzenacyclotetradecaphan-9-one], for which the IC50 in test [1] was 1 to 10 µM; in test [2], 1 to 10 µM; in test [3] it was 1 to 10 µM; in test [4] it was 1 to 10 µM; in test [5], not below 10 µM; in test [6], 1 to 10 µM. In addition, the IC50 in test [8] was 1 to 10 µM. Also, the GI50 in test [7] was less than 1 µM.

`O=C1CCCCOc2ccc(cc2)-c2ccc3cnc(nn23)Nc2cnn(c2)CCCN1` [Example 36, (2^1Z,4^4E)-4^1H-14-oxa-3,8-diaza-2(7,2)-pyrrolo[2,1-f][1,2,4]triazina-4(4,1)-pyrazola-1(1,4)-benzenacyclotetradecaphan-9-one]: the IC50 in test [1] was 1 to 10 µM; in test [2], less than 1 µM; in test [3], 1 to 10 µM; in test [4], less than 1 µM; in test [5], not below 10 µM; in test [6], 1 to 10 µM. In test [8], the IC50 lay within 1 to 10 µM. In addition, in test [7], the GI50 was less than 1 µM.

In the case of `O=C1CCCCCCOc2ccc(cc2)-c2ccc3cnc(nn23)Nc2cnn(c2)CCCN1` [Example 37, (2^1Z,4^4E)-4^1H-16-oxa-3,8-diaza-2(7,2)-pyrrolo[2,1-f1][1,2,4]triazina-4(4,1)-pyrazola-1(1,4)-benzenacyclohexadecaphan-9-one], the IC50 was not below 10 µM in test [1]; 1 to 10 µM in test [2]; not below 10 µM in test [3]; 1 to 10 µM in test [4]; not below 10 µM in test [5]; not below 10 µM in test [6]. The IC50 in test [8] was not below 10 µM. Besides, in test [7], the GI50 was less than 1 µM.

These data come from US20250136614A1, “2,7-SUBSTITUTED PYRROLO[2,1-F][1,2,4]TRIAZINE COMPOUND HAVING PROTEIN KINASE INHIBITORY ACTIVITY” (Magicbullettherapeutics Co., Ltd., priority 2021, published 2025).
